Measured values: paper PMC11950852, “Diversity Scale of Library Matters: Impact of mRNA Library Diversity Scales on the Discovery of Macrocyclic Peptides Targeting a Protein by the RaPID System” (ACS Central Science, 2025)
Where a SMILES comes first, the peptide text is derived from it. Bridges are numbered along the chain shown (N, C = ends).

Target: Fc-fused MET (His-/hFc-tagged human MET ectodomain) (Homo sapiens, UniProt P08581)
Assay: SPR binding kinetics of selected macrocyclic peptides to Fc-fused MET
Conditions: for Kd / ka / kd / kd (quoted in text): SPR conditions as E1; for Kd: 1:1 binding model; for kon: pH 7.4, read-out: ka

Row | kd | kon | Compound | Kd | ka | kd (quoted in text) | fold slower kd compared to 6–1 (ratio of SPR kd values) | kd (quoted in text) (listed as 8–2) | fold slower kd than other species of the E8 library (other species kd = ∼50 × 10^–3 s^–1)
1 | 0.00809 s⁻¹ | 26300 M⁻¹ s⁻¹ | CC[C@H](C)[C@@H]1NC(=O)[C@H](Cc2ccc(O)cc2)NC(=O)CSC[C@@H](C(=O)NCC(N)=O)NC(=O)[C@H](CS)NC(=O)[C@H](CC(N)=O)NC(=O)[C@H](CS)NC(=O)[C@H](CC(N)=O)NC(=O)[C@H](Cc2c[nH]c3ccccc23)NC(=O)[C@H](CC(C)C)NC(=O)[C@H](CCCCN)NC(=O)[C@H](CO)NC(=O)[C@H](CC(N)=O)NC(=O)[C@H](Cc2ccccc2)NC(=O)[C@H](CCCNC(=N)N)NC(=O)[C@H](CC(N)=O)NC(=O)[C@H](Cc2c[nH]c3ccccc23)NC(=O)[C@H](CCC(=O)O)NC1=O [10-4] ({CH2CO}-YIEWNRFNSKLWNCNCCG-NH2; thioether N-17) |  |  |  |  |  | 
2 | 0.00694 s⁻¹ | 356000 M⁻¹ s⁻¹ | CC(C)C[C@@H]1NC(=O)[C@H](Cc2ccc(O)cc2)NC(=O)CSC[C@@H](C(=O)NCC(N)=O)NC(=O)[C@H](CC(=O)O)NC(=O)[C@H](C(C)C)NC(=O)[C@H](Cc2ccc(O)cc2)NC(=O)[C@H](C(C)C)NC(=O)[C@H](Cc2c[nH]c3ccccc23)NC(=O)[C@H](CC(=O)O)NC(=O)[C@H](CCCCN)NC(=O)[C@H](CC(N)=O)NC(=O)[C@H](CC(=O)O)NC(=O)[C@H](Cc2ccc(O)cc2)NC(=O)[C@H](CCCCN)NC(=O)[C@H](Cc2c[nH]cn2)NC(=O)[C@H](Cc2c[nH]c3ccccc23)NC(=O)[C@H](CC(C)C)NC1=O [10-5] ({CH2CO}-YLLWHKYDNKDWVYVDCG-NH2; thioether N-17) |  |  |  |  |  | 
3 | 0.00489 s⁻¹ | 22300 M⁻¹ s⁻¹ | CC(C)C[C@@H]1NC(=O)[C@H](Cc2ccc(O)cc2)NC(=O)[C@H](CCC(=O)O)NC(=O)[C@H](CC(=O)O)NC(=O)[C@H](CCCNC(=N)N)NC(=O)[C@H](Cc2ccc(O)cc2)NC(=O)[C@H](Cc2c[nH]c3ccccc23)NC(=O)[C@H](Cc2ccc(O)cc2)NC(=O)[C@H](Cc2ccc(O)cc2)NC(=O)[C@H](Cc2c[nH]c3ccccc23)NC(=O)[C@H](Cc2c[nH]c3ccccc23)NC(=O)[C@H](Cc2ccc(O)cc2)NC(=O)CSC[C@@H](C(=O)NCC(N)=O)NC(=O)[C@H](CCCNC(=N)N)NC(=O)[C@H]([C@@H](C)O)NC(=O)[C@H](CCCNC(=N)N)NC(=O)[C@H](Cc2c[nH]c3ccccc23)NC1=O [10-6] ({CH2CO}-YWWYYWYRDEYLWRTRCG-NH2; thioether N-17) |  |  |  |  |  | 
4 | 0.00254 s⁻¹ | 79500 M⁻¹ s⁻¹ | CC[C@H](C)[C@@H]1NC(=O)[C@H](Cc2ccc(O)cc2)NC(=O)CSC[C@@H](C(=O)NCC(N)=O)NC(=O)[C@@H]2CCCN2C(=O)[C@H](CCCNC(=N)N)NC(=O)[C@H](C(C)C)NC(=O)[C@H](Cc2ccccc2)NC(=O)[C@H](Cc2c[nH]c3ccccc23)NC(=O)[C@H](CC(=O)O)NC(=O)[C@H](CCCCN)NC(=O)[C@H](CO)NC(=O)[C@H](C)NC(=O)[C@H](Cc2ccc(O)cc2)NC(=O)[C@H](C)NC(=O)[C@H](Cc2ccccc2)NC(=O)[C@H](Cc2c[nH]c3ccccc23)NC(=O)[C@H](CO)NC1=O [12-1] ({CH2CO}-YISWFAYASKDWFVRPCG-NH2; thioether N-17) |  |  | 2.54 × 10^–3 s^–1 |  |  | 
5 | 0.00413 s⁻¹ | 476000 M⁻¹ s⁻¹ | CC(C)[C@@H]1NC(=O)[C@H](CC(N)=O)NC(=O)CNC(=O)[C@H](CO)NC(=O)[C@H](Cc2c[nH]c3ccccc23)NC(=O)[C@H](CO)NC(=O)[C@H](Cc2ccc(O)cc2)NC(=O)[C@H](Cc2ccc(O)cc2)NC(=O)CSC[C@@H](C(=O)NCC(N)=O)NC(=O)[C@H](CO)NC(=O)[C@H](CC(N)=O)NC(=O)[C@H](Cc2c[nH]c3ccccc23)NC(=O)[C@H](CCCCN)NC(=O)[C@H](C(C)C)NC(=O)[C@H](CO)NC(=O)[C@H](CCC(=O)O)NC(=O)[C@H](CO)NC1=O [12-2] ({CH2CO}-YYSWSGNVSESVKWNSCG-NH2; thioether N-17) |  |  |  |  |  | 
6 | 0.00721 s⁻¹ | 456000 M⁻¹ s⁻¹ | CC[C@H](C)[C@@H]1NC(=O)[C@H](CCCCN)NC(=O)[C@@H](NC(=O)[C@H](CCC(=O)O)NC(=O)[C@@H](NC(=O)[C@H](Cc2c[nH]c3ccccc23)NC(=O)[C@H](CC(C)C)NC(=O)[C@@H]2CSCC(=O)N[C@@H](Cc3ccc(O)cc3)C(=O)N[C@@H](CC(N)=O)C(=O)N2)C(C)C)CSSC[C@@H](C(=O)NCC(N)=O)NC(=O)[C@H](CCCNC(=N)N)NC(=O)CNC(=O)[C@H](CC(N)=O)NC(=O)[C@@H]2CCCN2C(=O)[C@H](CC(C)C)NC(=O)[C@H](C(C)C)NC1=O [12-4] ({CH2CO}-YNCLWVECKIVLPNGRCG-NH2; disulfide 8-17; thioether N-3) |  |  | 7.21 × 10^–3 s^–1 |  |  | 
7 | 0.002 s⁻¹ | 130000 M⁻¹ s⁻¹ | CC(C)C[C@@H]1NC(=O)[C@H](CO)NC(=O)[C@H](Cc2ccccc2)NC(=O)[C@H](Cc2ccc(O)cc2)NC(=O)[C@H](Cc2c[nH]c3ccccc23)NC(=O)[C@H](CCCCN)NC(=O)[C@H](CCCCN)NC(=O)[C@H](CO)NC(=O)[C@H](CC(=O)O)NC(=O)[C@H](Cc2ccc(O)cc2)NC(=O)[C@H](CCC(=O)O)NC(=O)[C@H](Cc2c[nH]cn2)NC(=O)[C@H](Cc2c[nH]c3ccccc23)NC(=O)[C@H](C(C)C)NC(=O)[C@H](CC(C)C)NC(=O)[C@H](Cc2ccc(O)cc2)NC(=O)CSC[C@@H](C(=O)NCC(N)=O)NC1=O [12-5] ({CH2CO}-YLVWHEYDSKKWYFSLCG-NH2; thioether N-17) |  |  |  |  |  | 

Row | Compound | kd | kon | Kd | ka | kd (quoted in text) | fold slower kd compared to 6–1 (ratio of SPR kd values) | kd (quoted in text) (listed as 8–2) | fold slower kd than other species of the E8 library (other species kd = ∼50 × 10^–3 s^–1)
8 | CC(C)C[C@@H]1NC(=O)[C@H](Cc2ccc(O)cc2)NC(=O)[C@H](Cc2c[nH]c3ccccc23)NC(=O)[C@H](CO)NC(=O)[C@H](Cc2ccc(O)cc2)NC(=O)CSC[C@@H](C(=O)NCC(N)=O)NC(=O)[C@H](Cc2ccccc2)NC(=O)[C@H](CCC(=O)O)NC(=O)[C@H](Cc2ccccc2)NC(=O)[C@H](CCCCN)NC(=O)[C@H](CCCCN)NC(=O)[C@H](Cc2c[nH]c3ccccc23)NC(=O)[C@H](CCC(N)=O)NC(=O)[C@H](C)NC(=O)[C@H](CCC(N)=O)NC(=O)[C@H](Cc2c[nH]c3ccccc23)NC(=O)[C@H](CC(N)=O)NC1=O [6-1] ({CH2CO}-YSWYLNWQAQWKKFEFCG-NH2; thioether N-17) | 0.0518 s⁻¹ | 244000 M⁻¹ s⁻¹ | 212 nM | 2.44 × 10^5 M^–1 s^–1 | 51.8 × 10^–3 s^–1 |  |  | 
9 | CC(C)C[C@@H]1NC(=O)[C@H]([C@@H](C)O)NC(=O)[C@H](CCCCN)NC(=O)[C@H](C)NC(=O)[C@H](Cc2c[nH]c3ccccc23)NC(=O)[C@H](CCCCN)NC(=O)[C@H](C)NC(=O)[C@H](C(C)C)NC(=O)[C@H](CC(N)=O)NC(=O)[C@H]([C@@H](C)O)NC(=O)[C@H](Cc2c[nH]c3ccccc23)NC(=O)[C@H](CC(N)=O)NC(=O)[C@H](Cc2ccc(O)cc2)NC(=O)[C@H](Cc2ccc(O)cc2)NC(=O)[C@H](Cc2ccccc2)NC(=O)[C@H](Cc2ccc(O)cc2)NC(=O)CSC[C@@H](C(=O)NCC(N)=O)NC1=O [6-2] ({CH2CO}-YFYYNWTNVAKWAKTLCG-NH2; thioether N-17) | 0.0074 s⁻¹ | 72500 M⁻¹ s⁻¹ |  | 0.725 × 10^5 M^–1 s^–1 | 7.4 × 10^–3 s^–1 | 7 fold |  | 
10 | C[C@@H]1NC(=O)CNC(=O)[C@H](Cc2ccc(O)cc2)NC(=O)[C@H](CCC(=O)O)NC(=O)[C@H](CCCCN)NC(=O)[C@H](Cc2c[nH]c3ccccc23)NC(=O)[C@H](CCCNC(=N)N)NC(=O)CNC(=O)[C@H](CC(=O)O)NC(=O)[C@H](Cc2ccccc2)NC(=O)[C@H]([C@@H](C)O)NC(=O)[C@H](Cc2ccc(O)cc2)NC(=O)[C@H](Cc2ccc(O)cc2)NC(=O)[C@H](Cc2c[nH]c3ccccc23)NC(=O)[C@H](Cc2ccc(O)cc2)NC(=O)CSC[C@@H](C(=O)NCC(N)=O)NC(=O)[C@H](C)NC1=O [8-1] ({CH2CO}-YWYYTFDGRWKEYGAACG-NH2; thioether N-17) | 0.0427 s⁻¹ | 1.38e+06 M⁻¹ s⁻¹ | 31 nM | 13.8 × 10^5 M^–1 s^–1 | 42.7 × 10^–3 s^–1 |  |  | 
11 | CC(C)[C@@H]1NC(=O)[C@H](CCCCN)NC(=O)[C@H](CC(=O)O)NC(=O)CNC(=O)[C@H](CC(=O)O)NC(=O)[C@H](CCCNC(=N)N)NC(=O)CNC(=O)[C@H](CC(N)=O)NC(=O)[C@H](Cc2c[nH]c3ccccc23)NC(=O)[C@H](Cc2c[nH]cn2)NC(=O)[C@H](Cc2ccc(O)cc2)NC(=O)[C@H](Cc2ccc(O)cc2)NC(=O)CSC[C@@H](C(=O)NCC(N)=O)NC(=O)[C@H](C(C)C)NC(=O)[C@H](C(C)C)NC(=O)[C@H](Cc2c[nH]c3ccccc23)NC(=O)[C@H](CCC(=O)O)NC1=O [8-2] ({CH2CO}-YYHWNGRDGDKVEWVVCG-NH2; thioether N-17) | 0.0103 s⁻¹ | 475000 M⁻¹ s⁻¹ | 21.6 nM |  | ~10 × 10^–3 s^–1 |  | 10.3 × 10^–3 s^–1 | 5 fold
12 | C[C@@H]1NC(=O)[C@H](C)NC(=O)[C@H](CC(=O)O)NC(=O)[C@H](Cc2ccc(O)cc2)NC(=O)[C@H](CCC(=O)O)NC(=O)[C@H](CCC(=O)O)NC(=O)[C@H](Cc2c[nH]c3ccccc23)NC(=O)[C@H](CCCNC(=N)N)NC(=O)CNC(=O)[C@H](CC(=O)O)NC(=O)[C@H](Cc2ccccc2)NC(=O)[C@H]([C@@H](C)O)NC(=O)[C@H](Cc2ccc(O)cc2)NC(=O)[C@H](Cc2ccc(O)cc2)NC(=O)[C@H](Cc2c[nH]c3ccccc23)NC(=O)[C@H](Cc2ccc(O)cc2)NC(=O)CSC[C@@H](C(=O)NCC(N)=O)NC1=O [8-3] ({CH2CO}-YWYYTFDGRWEEYDAACG-NH2; thioether N-17) | 0.0464 s⁻¹ | 233000 M⁻¹ s⁻¹ |  | 2.33 × 10^5 M^–1 s^–1 | 46.4 × 10^–3 s^–1 |  |  | 
13 | CC(C)[C@@H]1NC(=O)[C@H](CO)NC(=O)CNC(=O)[C@H](CO)NC(=O)[C@H](Cc2c[nH]c3ccccc23)NC(=O)[C@H](CO)NC(=O)[C@H](Cc2ccc(O)cc2)NC(=O)[C@H](Cc2ccc(O)cc2)NC(=O)CSC[C@@H](C(=O)NCC(N)=O)NC(=O)[C@H](CO)NC(=O)[C@H](CC(N)=O)NC(=O)[C@H](Cc2c[nH]c3ccccc23)NC(=O)[C@H](CCCCN)NC(=O)[C@H](C(C)C)NC(=O)[C@H](CO)NC(=O)[C@H](CCC(=O)O)NC(=O)[C@H](CO)NC1=O [10-1] ({CH2CO}-YYSWSGSVSESVKWNSCG-NH2; thioether N-17) | 0.00878 s⁻¹ | 871000 M⁻¹ s⁻¹ | 10.1 nM |  | ~10 × 10^–3 s^–1 |  |  | 
